Experiments:
[1] = biological target: electrophorus electricus AChE (Electrophorus electricus, UniProt O42275); experiment: AChE inhibition, Ellman's method; assay type: biochemical; conditions: for AChE (I %): inhibition at 50 µM; for inhibition at 50 µM: read-out: AChE (I %)
Procedure: The potential effects of the synthesized compounds 4a–4i and 5a–5i on AChE and BChE were performed using electrophorus electricus AChE and equine serum BChE due to their low cost and high degree of similarity with their respective human enzymes. For the first screenings, they are excellent and widely used in vitro models.
AChE (EC EC 3.1.1.7) from electrophorus electricus and equine serum BChE (EC 3.1.1.8) were used for the inhibitory assays. ChE inhibitory activity was evaluated using Ellman’s method, as previously described, with slight modifications. The reaction mixture was prepared by dissolving acetylthiocholine iodide (1.5 mM), 5,5’-dithiobis-2-nitrobenzoate (DTNB) (1.5 mM) and the inhibitor (at the desired concentrations) or DMSO alone (control) in 0.1 M phosphate buffer (pH 8.0) to a final volume of 200 µL. The enzyme was added to the reaction mixture and the absorbance was monitored at 405 nm as soon as it was added. This test is based on the AChE enzyme hydrolyzing acetylthiocholine to produce acetate and thiocholine. Thiocholine reacts with DTNB to produce a yellow-colored anion. For the BChE assay, we followed the same procedures as above but used BChE as the enzyme and S-butyrylthiocholine chloride (BTCI) as the substrate. […] Galantamine is considered as a positive control under the same experimental conditions.

[2] = biological target: T1, equine serum BChE (Equus caballus, UniProt P81908); experiment: biochemical; conditions: for BChE (I %): inhibition at 50 µM; for inhibition at 50 µM: read-out: BChE (I %)
T1 construct: from tissue; host or cells: equine serum
T1 sequence (P81908 whole entry): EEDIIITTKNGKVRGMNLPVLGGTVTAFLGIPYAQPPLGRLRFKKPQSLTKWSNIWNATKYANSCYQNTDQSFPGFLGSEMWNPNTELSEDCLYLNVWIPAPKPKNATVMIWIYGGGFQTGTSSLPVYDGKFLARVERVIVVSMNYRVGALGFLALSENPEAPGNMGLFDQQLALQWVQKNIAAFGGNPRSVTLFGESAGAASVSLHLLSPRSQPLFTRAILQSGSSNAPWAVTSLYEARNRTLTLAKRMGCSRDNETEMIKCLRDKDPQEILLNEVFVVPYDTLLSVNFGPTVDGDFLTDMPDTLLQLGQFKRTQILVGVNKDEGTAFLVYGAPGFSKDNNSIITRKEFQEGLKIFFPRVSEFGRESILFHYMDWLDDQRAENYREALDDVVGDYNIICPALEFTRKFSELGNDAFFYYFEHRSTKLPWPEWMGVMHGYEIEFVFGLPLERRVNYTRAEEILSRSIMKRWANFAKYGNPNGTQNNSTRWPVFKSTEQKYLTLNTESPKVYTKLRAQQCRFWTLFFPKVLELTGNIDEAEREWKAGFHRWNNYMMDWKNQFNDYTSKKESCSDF
Procedure: AChE (EC EC 3.1.1.7) from electrophorus electricus and equine serum BChE (EC 3.1.1.8) were used for the inhibitory assays. ChE inhibitory activity was evaluated using Ellman’s method, as previously described, with slight modifications. The reaction mixture was prepared by dissolving acetylthiocholine iodide (1.5 mM), 5,5’-dithiobis-2-nitrobenzoate (DTNB) (1.5 mM) and the inhibitor (at the desired concentrations) or DMSO alone (control) in 0.1 M phosphate buffer (pH 8.0) to a final volume of 200 µL. The enzyme was added to the reaction mixture and the absorbance was monitored at 405 nm as soon as it was added. This test is based on the AChE enzyme hydrolyzing acetylthiocholine to produce acetate and thiocholine. Thiocholine reacts with DTNB to produce a yellow-colored anion. For the BChE assay, we followed the same procedures as above but used BChE as the enzyme and S-butyrylthiocholine chloride (BTCI) as the substrate.

[3] = Solubility in DMSO; assay type: physicochemical
[4] = test system: SH-SY5Y cells; experiment: Cell viability, MTT assay; assay type: cell-based; conditions: 24 h, at IC50 concentrations
Procedure: Therefore, their impact on the viability of SH-SY5Y cells (neuroblastoma cell line) has been studied. For cell viability experiments, the compounds were tested at different concentrations (0, 30, 50, 100 and 200 μM) for 24 h and analyzed using the MTT test.
Human neuroblastoma cell line SH-SY5Y was obtained from ICLC Cell bank (cat. # HTL95013). The cells were cultured in high-glucose DMEM supplemented with 10% fetal bovine serum, 100 units/mL of penicillin and 100 µg/mL of streptomycin (all from Gibco, Life sciences; Thermo Fisher Scientific, Waltham, MA, USA) and maintained at 37 °C in a humidified atmosphere of 5% CO2 and 95% air. Cell viability was detected by the colorimetric 3-(4,5 dimethylthiazol-2-yl)-2,5-diphenyltetrazolium bromide (MTT) assay, as previously described, with minor modifications. Briefly, 1.5 × 10^4 cells/well were seeded in 96-well plates and incubated for 24 h with different concentrations (30–200 μM) of compounds. After incubation, 100 μL of the MTT reagent (0.5 mg/mL in DMEM) was added, and the cells were incubated for 3 h at 37 °C. The resulting violet formazan precipitate was dissolved in DMSO and quantified by spectrophotometry at 570 nm using a microplate reader (VANTAstar_BMG LABTECH GmbH, Offenburg, Germany). Viability data were reported in the percentage of control for each compound.

Chain of electrophorus electricus AChE (O42275 24-633): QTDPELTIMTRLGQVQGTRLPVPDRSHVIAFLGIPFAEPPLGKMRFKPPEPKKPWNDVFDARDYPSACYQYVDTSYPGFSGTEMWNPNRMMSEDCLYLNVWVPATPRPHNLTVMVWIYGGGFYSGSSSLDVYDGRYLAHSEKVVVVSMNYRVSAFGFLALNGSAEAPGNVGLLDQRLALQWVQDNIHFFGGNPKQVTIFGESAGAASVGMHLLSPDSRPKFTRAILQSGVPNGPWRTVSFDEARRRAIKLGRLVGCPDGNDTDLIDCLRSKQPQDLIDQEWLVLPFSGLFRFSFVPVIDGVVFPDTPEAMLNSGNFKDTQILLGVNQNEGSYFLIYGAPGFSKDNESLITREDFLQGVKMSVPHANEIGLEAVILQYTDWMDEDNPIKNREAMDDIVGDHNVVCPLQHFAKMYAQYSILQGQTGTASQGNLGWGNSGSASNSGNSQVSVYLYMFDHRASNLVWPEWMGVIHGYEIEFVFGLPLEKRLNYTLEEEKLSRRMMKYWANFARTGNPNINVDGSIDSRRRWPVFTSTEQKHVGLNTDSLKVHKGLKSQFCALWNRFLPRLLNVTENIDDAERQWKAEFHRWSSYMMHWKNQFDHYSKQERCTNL

Compound	inhibition at 50 µM [1] [%]	inhibition at 50 µM [2] [%]	also measured
c1ccc(-c2cc3ccccc3s2)cc1 [Compound 4a, 2-Phenylbenzothiophene]			AChE (I %) [1]: Ins.; BChE (I %) [2]: Ins.; solubility in dimethyl sulfoxide (DMSO) [3]: insoluble
O=[N+]([O-])c1ccc(-c2cc3ccccc3s2)cc1 [Compound 4b, 2-(4-Nitrophenyl)benzothiophene]	8.2	2.29	
COc1ccc(-c2cc3ccccc3s2)cc1 [Compound 4c, 2-(4-Methoxyphenyl)benzothiophene]	9.6	1.2	
N#Cc1ccc(-c2cc3ccccc3s2)cc1 [Compound 4d, 4-(Benzothiophene-2-yl)benzonitrile]			AChE (I %) [1]: Ins.; BChE (I %) [2]: Ins.; solubility in dimethyl sulfoxide (DMSO) [3]: insoluble
FC(F)(F)c1ccc(-c2cc3ccccc3s2)cc1 [Compound 4e, 2-(4-Trifluoromethylphenyl)benzothiophene]			AChE (I %) [1]: Ins.; BChE (I %) [2]: Ins.; solubility in dimethyl sulfoxide (DMSO) [3]: insoluble
Clc1ccc(-c2cc3ccccc3s2)cc1 [Compound 4f, 2-(4-Chlorophenyl)benzothiophene]			AChE (I %) [1]: Ins.; BChE (I %) [2]: Ins.; solubility in dimethyl sulfoxide (DMSO) [3]: insoluble
Cc1ccc(-c2cc3ccccc3s2)cc1 [Compound 4g, 2-(4-Methylphenyl)benzothiophene]			AChE (I %) [1]: Ins.; BChE (I %) [2]: Ins.; solubility in dimethyl sulfoxide (DMSO) [3]: insoluble
Nc1ccc(-c2cc3ccccc3s2)cc1 [Compound 4h, 2-(4-aminophenyl)benzothiophene]		10.2	
Oc1ccc(-c2cc3ccccc3s2)cc1 [Compound 4i, 2-(4-hydroxyphenyl)benzothiophene]	8.19	13.6	
O=C(c1ccccc1)c1c(-c2ccccc2)sc2ccccc12 [Compound 5a, 3-Benzoyl-2-phenylbenzothiophene]	20.8	35.7	IC50 [2]: 83.4 ± 1.2 µM; cytotoxic effects on cell viability [4]: no cytotoxic effects
O=C(c1ccc([N+](=O)[O-])cc1)c1c(-c2ccc([N+](=O)[O-])cc2)sc2ccccc12 [Compound 5b, 3-(4-Nitrobenzoyl)-2-(4-nitrophenyl)benzothiophene]	11	16.8	
COc1ccc(C(=O)c2c(-c3ccc(OC)cc3)sc3ccccc23)cc1 [Compound 5c, 3-(4-Methoxybenzoyl)-2-(4-methoxyphenyl)benzothiophene]	3.5	11.9	
N#Cc1ccc(C(=O)c2c(-c3ccc(C#N)cc3)sc3ccccc23)cc1 [Compound 5d, 4-Cianophenyl-[2-(4-cianophenyl)-benzothiophen-3-yl]-methanone]	4.5	14	
O=C(c1ccc(C(F)(F)F)cc1)c1c(-c2ccc(C(F)(F)F)cc2)sc2ccccc12 [Compound 5e, 3-(4-Trifluoromethylbenzoyl)-2-(4-trifluoromethylphenil)benzothiophene]	10	3.1	
O=C(c1ccc(Cl)cc1)c1c(-c2ccc(Cl)cc2)sc2ccccc12 [Compound 5f, 3-(4-Chlorobenzoyl)-2-(4-chlorophenyl)benzothiophene]	39.9	23.1	IC50 [1]: 62.1 ± 1.2 µM; cytotoxic effects on cell viability [4]: no cytotoxic effects
Cc1ccc(C(=O)c2c(-c3ccc(C)cc3)sc3ccccc23)cc1 [Compound 5g, 3-(4-Methylbenzoyl)-2-(4-methylphenyl)benzothiophene]	28.3	13.1	
Nc1ccc(C(=O)c2c(-c3ccc(N)cc3)sc3ccccc23)cc1 [Compound 5h, 3-(4-aminobenzoyl)-2-(4-aminophenyl)benzothiophene]		58.3	IC50 [2]: 24.3 ± 0.5 µM; cytotoxic effects on cell viability [4]: no cytotoxic effects
O=C(c1ccc(O)cc1)c1c(-c2ccc(O)cc2)sc2ccccc12 [Compound 5i, 3-(4-hydroxybenzoyl)-2-(4-hydroxyphenyl)benzothiophene]	19.3	42.2	IC50 [2]: 59.6 ± 11.6 µM; cytotoxic effects on cell viability [4]: no cytotoxic effects

Source: article PMC11356821, “A New Class of Benzo[b]thiophene-chalcones as Cholinesterase Inhibitors: Synthesis, Biological Evaluation, Molecular Docking and ADME Studies” (Molecules, 2024)
